Where two headings read alike, the source gives them in different places.
Tests used:
neutrophils [1] = test system: neutrophils
Procedure: (§1) Neutrophils were isolated from peripheral blood. 3.5 ml of heparinised blood was spread over M-PRM medium (Flow Laboratories) and centrifuged for 40 minutes at 400g at 20° C. […] The cells were adjusted to a concentration of 2×10^6 ml.
Acid phosphatase: 50 μl of substrate mixture, consisting of 0.24% paranitrophenyl phosphate (Boehring) and 0.84% NaCl in a sodium citrate buffer (pH 5.5) were added to cells and incubated for 30 minutes at 30° C. before the reaction was by adding 100 μl of 0.2M NaOH. The optical density at 405 mu was measured with a Multiscan Titertek Plus (Flow Laboratories).
(§2) For chemiluminescence, superoxide anion production, myeloperoxidase and acid phosphatase both the spontaneous and induced reactions were measured. Induction was performed by exposing the cells to opsonized zymosan (30 μl, 20 mg/ml) for 30 minutes at 37° C. before the assay.
(§3) In the treated group GMDP was given per os on days -2 and -1 before the operation, and subcutaneously on days +1, +2 and +3 after the operation at a dose of 1-2 mg/day. The total dose of GMDP was […]. On day +5 after the operation neutrophil function was again assessed in all patients by the same parameters as specified above.

peritoneal macrophages = conditions: 100 μg i.p. per mouse, LPS 300 μg one day later, black ink uptake, OD 610 nm; FIG. 2
Procedure: Mice were divided into 9 groups and to each group was administered one of the following: saline, MDP, MDP-OBu, MDP-Thr, GMDP, MDP-Lys(St), GMDP-OH and GMDP-LL.
The compound under test was injected into the peritoneal cavity of mice, each mouse receiving 100 μg or an equimolar equivalent dose. Control mice received 200 μl of saline. One day after injection of the muramyl peptide, a lethal does of LPS (300 μg per mouse) in 200 μl of physiological saline was injected intraperitoneally and after 20 minutes, 1 ml of black ink was also administered intraperitoneally. 10 minutes later, peritoneal macrophages were obtained and washed twice. The number of cells was counted and then the macrophages were lysed and the optical density of the supernatant was determined at 610 nm.

IL-1 = assay: Example 6: IL-1 production by peritoneal macrophages in response to LPS; assay type: in vivo, BALB/c mice; conditions: 2 injections 12 hours apart; macrophages stimulated with LPS 25 μg/ml 24 hours; thymocyte co-stimulation bioassay; FIG. 4
Procedure: Mice (BALB/c, female) 13-14 g, 5 animals in each group, received 2 injections of MDPs, 12 hours apart. The MDPs tested were MDP, muroctasin, MDP-Thr, MDP-OBu, GMDP-LL, GMDP-Lys(St) and GMDP-A. After the last injection, peritoneal cells were collected and the induction of IL-1 secretion by peritoneal macrophages was tested.
Macrophages were collected from the peritoneal cavity of mice by lavage with Hank's balanced salt solution. After washing the cells, they were then placed in wells of flat-bottomed 96-well plates and incubated at 37° C. for 1 hour in RPMI containing 5% FCS. The plates were then washed with warm RPMI to remove non-adhering cells. LPS (25 μg/ml) was then added in fresh culture medium and the plates were further cultured for 24 hours.
Production of IL-1 by peritoneal macrophages was assayed by thymocyte co-stimulation bioassay. Thymocytes from (CBA*C57BL.6)F1 mice (106), PHA (1 μg.ml), and the tested supernatant (50 μl) were placed into the wells of flat-bottomed 96-well plates. Thymocyte proliferation rate was measured 72 hours later by the incorporation of 3H TdR (1 μCi.well) during 6 hours prior to culture termination.

neutrophils [2] = test system: neutrophils; remark: listed apart in the source
Procedure: as §1
Superoxide anion production was determined by the NBT test (Merck).
as §2
(§4) On day before treatment with GMDP (day -1) the neutrophil function of all patients was measured by the tests described above in Example 1. In the GMDP-treated group, GMDP was administered parenterally at a dose of 1-2 mg/day for five consecutive days. The total dose of GMDP was […].
One day after the cessation of GMDP treatment (day +6), neutrophil function was again measured in all patients.

Pyrogenicity = conditions: in vivo
Procedure: The expression "non pyrogenic or of low pyrogenicity" refers to a compound which induces an increase in temperature of an adult human of less than half a degree following the administration of 1 to 2 mg of the compound.
First, muramyl peptide compounds useful in the invention may be non-pyrogenic. Pyrogenicity may be simply measured by methods well known in the art.

[3] = test system: patients suffering from acute sepsis; conditions: GMDP parenterally 1-2 mg/day for five days
Procedure: The patients entering this trial were already suffering from serious systemic bacterial sepsis arising as a result of destructive cholecystitis, abscesses of the abdominal cavity, peritonitis, pancreonecrosis and post-operative pneumonia.
as §4

[4] = test system: patients undergoing surgery for colon cancer
Procedure: All the patients entering this trial were about to undergo major abdominal surgery for the resection of carcinoma of the colon.
as §3
The patients were monitored for post-operative sepsis for four weeks following the operation. The septic complications which were scored included disseminated sepsis, pneumonia, peritonitis and abdominal abscesses, all of which are known to lead to septic shock.

TNFα = assay: Example 8: TNF induction by muramyl peptides; assay type: in vivo, BALB/c mice; conditions: C. parvum-primed mice, 100 μg (equimolar) IP, LPS 25 μg 18 hours later; FIG. 6
Procedure: Here, the muramyl peptides tested were prototype MDP, GMDP, GMDP-A, GMDP-OBu, GMDP-Lys(St), GMDPA-Lys(St), GMDP-Benz and Thr-MDP.
BALB/mice (6 mice/groups) were injected intraperitoneally with 1.4 mg of dead C. parvum (0.2 ml of a 7 mg/ml suspension). Mice were subsequently (2 weeks later) treated with saline, MDP (100 μg) or analogue (100 μg) in 0.5 ml saline IP. The dose of each `MDP` was adjusted so that animals received equimolar amounts. […] (25 μg) was injected 18 hours after the injection of MDP/analogue and the mice were subsequently sacrificed and bled out. TNF was determined by standard capture ELISA assay.

neutrophils [5] = test system: neutrophils; remark: listed apart in the source
Procedure: as §1
Adhesion: 100 μl of neutrophil suspension were placed in the wells of a flat-bottomed culture dish, and incubated at 37° C. for 60 minutes. After washing off the non-adhesive cells, the adhered neutrophils were fixed with ethanol and stained with Romanovsky-Giemsa dye. After washing out the free dye, the cell-associated dye was dissolved in isopropanol, and the optical density (OD650) of the solution was determined using an "ELISA II" microprocessor (Boehringer). The number of adherent cells was calculated by reference to a standard curve.
as §3

Structure (SMILES): CC(=O)NC1C(OC2C(CO)OC(O)C(NC(C)=O)C2OC(C)C(=O)NC(C)C(=O)NC(CCC(=O)O)C(N)=O)OC(CO)C(O)C1O [GMDP, N-acetyl-D-glucosaminyl-(β1-4)-N-acetylmuramyl-L-alanyl-D-isoglutamine]
- Acid phosphatase, spontaneous (neutrophils [1]; Day +5): 114.9 ± 2.4 O.D. 405μ
- Acid phosphatase, spontaneous (neutrophils [1]; Day -3 (before treatment)): 133.8 ± 75 O.D. 405μ
- Acid phosphatase, spontaneous % Change (neutrophils [1]; Day -3 to Day +5): -14.1%
- Acid phosphatase, induced (neutrophils [1]; opsonized zymosan, Day +5): 120.8 ± 3.2 O.D. 405μ
- Acid phosphatase, induced (neutrophils [1]; opsonized zymosan, Day -3 (before treatment)): 172.3 ± 18.8 O.D. 405μ
- Acid phosphatase, induced % Change (neutrophils [1]; opsonized zymosan, Day -3 to Day +5): -29.94%
- phagocytic activity of macrophages (peritoneal macrophages): potent in increasing macrophage activity
- suppression of IL-1 production (IL-1): suppress the IL-1 response to LPS
- Superoxide, spontaneous (neutrophils [2]; Day +6): 84.3 ± 8.7 O.D. 540μ
- Superoxide, spontaneous (neutrophils [2]; Day -1 (before treatment)): 55.5 ± 6.4 O.D. 540μ
- Superoxide, spontaneous % Change (neutrophils [2]; Day -1 to Day +6): +51.9%
- Superoxide, induced (neutrophils [2]; opsonized zymosan, Day -1 (before treatment)): 92.1 ± 3.21 O.D. 540μ
- Superoxide, induced % Change (neutrophils [2]; opsonized zymosan, Day -1 to Day +6): +53.2%
- pyrogenicity (Pyrogenicity): sufficiently low
- No of patients with progression of septic complications ([3]; 14 treated patients): 4
- Mortality (%) ([3]; control 27%): 14.3%
- Incidence of progression of septic complications (%) ([3]; control 61%): 28.6%
- No of Patients with Septic Complications ([4]; 16 treated patients, GMDP 1-2 mg/day per os days -2,-1, s.c. days +1 to +3, monitored 4 weeks): 3
- Mortality (%) ([4]; GMDP before and after operation, control 15%): 6.25%
- Incidence of Septic Complications (%) ([4]; GMDP before and after operation, control 50%): 18.75%
- effect on LPS-induced TNFα production (TNFα): suppress TNFα production
- Adhesion (neutrophils [5]; Day +5 after operation): 47.9 ± 12.6 O.D. 650μ
- Adhesion (neutrophils [5]; Day -3 (before treatment)): 39.8 ± 5.4 O.D. 650μ
- Adhesion % Change (neutrophils [5]; Day -3 to Day +5): +20.4%

Source: patent publication US5506204A, “Muramyl compounds for treatment of septic shock” (Peptech (UK) Limited, priority 1991, dated 1996)
